Experimental data from article PMC9569447 (International Journal of Molecular Sciences, 2022).
“And” between values parts separate entries of the source, which are not always exact repeats. Equal values may be shown once. “Also recorded” adds a separate entry of the source. Marks after values point to notes of the source that are not given here. Numbered stars: 1 amine (or outer) side, 2 acyl side, 3 side chain; on linkers, the order of the positions; unused ones are H or OH. Bridge positions count the residues as written; N and C are the ends. Square brackets hold non-standard residues; d marks the D form. Side chains are listed from the residue outwards. Peptide text beside a SMILES is read from it. * marks the point of attachment. PEG8 = NCCOCCOCCOCCOCCOCCOCCOCCOCCC(=O)O; Palmitoyl = CCCCCCCCCCCCCCCC(=O)*; hCys = N[C@@H](CCS)C(=O)O; X1 = O=C(CC[*:2])[*:1]

Legend:
[1] = test system: diet-induced obese (DIO) Sprague Dawley rats; format: in vivo
Excerpt: Male Sprague Dawley rats were fed 60% HF diet (formula: D12492; Research Diets, Inc; New Brunswick, NJ, USA; 5.21 kcal/g) for 16 weeks prior to the start of the study. Rats were then singly housed in BioDAQ cages (Research Diets, Inc.; New Brunswick, NJ, USA) and allowed to acclimate to their new environment for 10 days. Baseline measures of body weight, food intake and water intake were taken for one week to balance the groups and create feeding pairs. Each group (n = 6 animals/group) averaged 714.47 ± 81.60 g at baseline (Table 3).
Effects of ASK2131 were compared to a vehicle-treated group, OXT-treated group, as well as a pair-fed control group. Three days of baseline measures were taken before subcutaneous treatment administration began on day 4 of the study. Assessments were made to body weight, food intake and water intake. ASK2131 was administered at 50 nmol/kg throughout the entire study period. […] OXT-treated animals were started at 50 nmol/kg dose for two days, followed by 150 nmol/kg, then 300 nmol/kg, until ending at 600 nmol/kg for the remainder of the study.

[2] = test system: diet-induced obese (DIO) Sprague Dawley rats; test: Post-treatment serum levels after the 22-day treatment; format: in vivo, rat
Protocol: Cardiac puncture was used to collect blood for analysis 2 h post final injection. Commercially available enzyme-linked immunosorbent assays (ELISA) were used for quantitative assessment of leptin (cat. # EZRL-83K; MilliporeSigma, Burlington, MA, USA), insulin (cat. # EZRMI-13K; MilliporeSigma, Burlington, MA, USA), and adiponectin (cat. # EZRAPD-62K MilliporeSigma, Burlington, MA, USA). Serum samples were diluted 1:500 for the adiponectin ELISA using the sample diluent provided with the kit. All ELISAs were completed following the manufacturers recommendations. Levels of glucose, cholesterol (total, HDL, and calculated LDL), triglycerides, ALT, and AST were determined in the serum on a Modular P chemistry analyzer (Roche Diagnostics, Risch-Rotkreuz, Switzerland) by the University of Washington Nutrition and Obesity Research Center’s Analytic Core (Seattle, WA, USA).

in vivo = details: male, Sprague Dawley, rat, sc
Protocol: Whole blood samples were immediately centrifuged at 4 °C; separated plasma (~100 uL) was pipetted into micro centrifuge tubes, flash frozen on dry ice, and stored at −80 °C. Quantitative analysis plasma samples were performed by Alturas Analytics (Moscow, ID, USA) via peptide extraction from acidified plasma with acetonitrile followed by LC-MS/MS analysis.

human V2 receptor = molecular target: T1, human V2 receptor (Homo sapiens, UniProt P30518); test: In vitro functional assay at V2R (cAMP production, HTRF); format: cell-based; details: result in words
T1 construct: expressed in transfected cells; host or cells: CHO
T1 sequence (P30518 whole entry): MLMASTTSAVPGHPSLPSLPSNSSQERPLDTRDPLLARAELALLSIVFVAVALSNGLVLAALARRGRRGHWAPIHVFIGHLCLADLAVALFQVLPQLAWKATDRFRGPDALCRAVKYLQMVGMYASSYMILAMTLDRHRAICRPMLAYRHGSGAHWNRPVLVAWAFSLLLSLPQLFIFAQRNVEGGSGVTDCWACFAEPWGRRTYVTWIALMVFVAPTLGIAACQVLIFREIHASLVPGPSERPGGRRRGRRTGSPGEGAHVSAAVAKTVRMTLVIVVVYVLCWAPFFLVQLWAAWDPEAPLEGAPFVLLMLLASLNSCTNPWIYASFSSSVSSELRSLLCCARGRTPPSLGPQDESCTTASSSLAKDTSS
Protocol: Evaluation of the agonist activity of ASK2131 at the human V2 receptor expressed in stably transfected CHO cells was conducted by measuring its effects on cAMP production using the HTRF detection method. The cells were suspended in HBSS buffer (Invitrogen, Carlsbad, CA) complemented with 20 mM HEPES (pH 7.4), 0.01% BSA and 500 μM IBMX, then distributed in microplates at a density of […] cells/well and incubated for 30 min at room temperature in the absence (control) or presence of the test compound or the reference agonist.
For stimulated control measurement, separate assay wells contained 1 nM AVP. Following incubation, the cells were lysed, and the fluorescence acceptor (D2-labeled cAMP) and fluorescence donor (anti-cAMP antibody labeled with europium cryptate) were added. After 60 min at room temperature, the fluorescence transfer was measured at λex = 337 nm and λem = 620 and 665 nm using a microplate reader (Envision, Perkin Elmer, Waltham, MA, USA). The cAMP concentration was determined by dividing the signal measured at 665 nm by that measured at 620 nm (ratio).
The results were expressed as a percent of the control response to 1 nM AVP. The standard reference agonist was AVP, which was tested in each experiment at several concentrations to generate a concentration-response curve from which its EC50 value was calculated.

[3] = serum ELISA, after 22 days, mean ± SEM, n = 6 (Oxytocin n = 4)
[4] = serum, 2 h post final injection after 22 days, mean ± SEM, n = 6 (Oxytocin n = 4)

CCCCCCCCCCCCCCCC(=O)NCCOCCOCCOCCOCCOCCOCCOCCOCCC(=O)NCCCC[C@H](NC(=O)CNC(=O)[C@@H]1CCSCCC(=O)N[C@@H](Cc2ccc(O)cc2)C(=O)N[C@@H]([C@@H](C)CC)C(=O)N[C@@H](CCC(N)=O)C(=O)N[C@@H](CC(N)=O)C(=O)N1)C(=O)NCC(N)=O [ASK2131] (YIQN[hCys]GK([PEG8-Palmitoyl])G-NH2; linker N-5 via X1)
decrease in food intake ([1]; 50 nmol/kg, first 8 days of treatment): 35% | reduction in food intake ([1]; 50 nmol/kg, last 8 days of treatment): 25% | average decline in food intake ([1]; 50 nmol/kg, whole 22-day treatment): 28% | body weight, predicted mean difference (PMD) vs vehicle-treated group ([1]; after 2 days of drug administration, 50 nmol/kg sc, 95% CI −6.52 to −1.15%, p = 0.0011): −3.83% | body weight, predicted mean difference (PMD) vs OXT-treated group ([1]; after 2 days of drug administration, both 50 nmol/kg sc, 95% CI −6.45 to −1.08%, p = 0.0014): −3.77% | Posttreatment body weight ([1]; after 22 days once daily sc, ASK2131 50 nmol/kg, OXT titrated 50 to 600 nmol/kg, n = 6, mean ± SEM): 676 ± 42 g | % change in body weight ([1]; after 22 days vs baseline, once daily sc, ASK2131 50 nmol/kg, OXT titrated 50 to 600 nmol/kg, n = 6, mean ± SEM): −6.6 ± 1.3% and −6.6 ± 1.3 ^c,d % | body weight reduction compared to baseline ([1]; after 22 days, ASK2131 50 nmol/kg sc daily, mean ± standard error): 6.6 ± 1.3% | body weight change, mean difference (MD) vs vehicle ([1]; after 22 days, ASK2131 50 nmol/kg/d, 95% CI −15.6 to −7.4, p < 0.0001): −11.5% | cumulative food intake, mean difference (MD) vs vehicle ([1]; after 22 days, ASK2131 50 nmol/kg/d, 95% CI −1031 to −213.1, p < 0.0008): -621.9 kcal | reduction of food intake compared to baseline ([1]; day 3, 50 nmol/kg/d sc): 39 ± 9% | food intake, predicted mean difference (PMD) vs vehicle-treated group ([1]; day 3, 50 nmol/kg/d sc, 95% CI −80.47 to −11.51%, p = 0.0102): −45.99% | tolerability ([1]; rat, in vivo): well tolerated | water intake ([1]; rat, in vivo): without relevant changes of water intake | body weight reduction (weight loss) vs vehicle at end of treatment ([1]; study completion, 22 days, ASK2131 50 nmol/kg, OXT titrated up to 600 nmol/kg): 11.5% | Calculated LDL ([2]; Calculated LDL = Cholesterol − (HDL + Triglycerides/5), serum after 22 days, mean ± SEM): 15 ± 5 mg/dL | Cholesterol vs. vehicle treated animals ([2]; after 22 days of treatment, result in words): significantly reduced | Insulin [2, 3]: 6.7 ± 1.0 ng/mL | Leptin [2, 3]: 39 ± 9.1 ng/mL | Adiponectin ([2]; serum ELISA, diluted 1:500, after 22 days, mean ± SEM, n = 6 (Oxytocin n = 4)): 62.4 ± 7.3 ng/mL | ALT [2, 4]: 26 ± 2 U/L | AST [2, 4]: 73 ± 8 U/L | Cholesterol [2, 4]: 67 ± 6 ^b mg/dL | Glucose [2, 4]: 237 ± 12 mg/dL | HDL [2, 4]: 21 ± 2 mg/dL | Triglycerides [2, 4]: 182 ± 30 mg/dL | half-life (in vivo): 2.3 h | V2R activation (human V2 receptor): potent activator of V2R; also recorded: activate V2R
